Results published in ChEMBL document CHEMBL1201862, “PubChem BioAssay data set” (2004).
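Compound exposure: 48 hours, 5 concentrations, 96-well plates. Here, GI50 denotes the concentration required for 50% inhibition of growth.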 Active and inactive are the calls of the source. No stated cut-off is given here; in the data, active = GI50 up to about 1.1 µM and inactive = higher.

Columns and labels:
Test in all cases: NCI tumour cell line growth inhibition, 48 h
786-0 = system: 786-0
A498 = system: A498
A549 = system: A549
ACHN = system: ACHN
BT-549 = system: BT-549
CAKI-1 = system: CAKI-1
CCRF-CEM = system: CCRF-CEM
COLO 205 = system: COLO 205
DU-145 = system: DU-145
EKVX = system: EKVX
HCT-116 = system: HCT-116
HCT-15 = system: HCT-15
HL-60 = system: HL-60
HOP-62 = system: HOP-62
HOP-92 = system: HOP-92
HT-29 = system: HT-29
Hs-578T = system: Hs-578T
IGROV-1 = system: IGROV-1
K562 = system: K562
KM12 = system: KM12
LOX IMVI = system: LOX IMVI
M14 = system: M14
MCF7 = system: MCF7
MDA-MB-231 = system: MDA-MB-231
MDA-MB-435 = system: MDA-MB-435
MDA-N = system: MDA-N
MOLT-4 = system: MOLT-4
Malme-3M = system: Malme-3M
NCI-H226 = system: NCI-H226
NCI-H23 = system: NCI-H23
NCI-H460 = system: NCI-H460
NCI-H522 = system: NCI-H522
NCI/ADR-RES = system: NCI/ADR-RES
OVCAR-3 = system: OVCAR-3
OVCAR-4 = system: OVCAR-4
OVCAR-5 = system: OVCAR-5
OVCAR-8 = system: OVCAR-8
PC-3 = system: PC-3
RPMI-8226 = system: RPMI-8226
RXF 393 = system: RXF 393
SF-268 = system: SF-268
SF-295 = system: SF-295
SF-539 = system: SF-539
SK-MEL-28 = system: SK-MEL-28
SK-MEL-2 = system: SK-MEL-2
SK-MEL-5 = system: SK-MEL-5
SK-OV-3 = system: SK-OV-3
SN12C = system: SN12C
SNB-19 = system: SNB-19
SNB-75 = system: SNB-75
SR = system: SR
SW-620 = system: SW-620
T47D = system: T47D
TK-10 = system: TK-10
U-251 = system: U-251
UACC-257 = system: UACC-257
UACC-62 = system: UACC-62
UO-31 = system: UO-31
HCC 2998 = system: HCC 2998

## Nc1cccc(/C=C/C(=O)N2CCN(CCOC(c3ccccc3)c3ccccc3)CC2)c1
786-0
  GI50: 16.7 µM (inactive)
A498
  GI50: 17.5 µM (inactive)
A549
  GI50: 16.6 µM (inactive)
ACHN
  GI50: 16.1 µM (inactive)
BT-549
  GI50: 15 µM (inactive)
CAKI-1
  GI50: 18.6 µM (inactive)
CCRF-CEM
  GI50: 10 µM (inactive)
COLO 205
  GI50: 12.7 µM (inactive)
DU-145
  GI50: 15.1 µM (inactive)
EKVX
  GI50: 18.7 µM (inactive)
HCT-116
  GI50: 15.5 µM (inactive)
HCT-15
  GI50: 16.3 µM
HL-60
  GI50: 11.2 µM (inactive)
HOP-62
  GI50: 17.7 µM (inactive)
HOP-92
  GI50: 12.9 µM (inactive)
HT-29
  GI50: 8.2 µM (inactive)
Hs-578T
  GI50: 21 µM (inactive)
IGROV-1
  GI50: 18.2 µM (inactive)
K562
  GI50: 9.98 µM (inactive)
KM12
  GI50: 17 µM (inactive)
LOX IMVI
  GI50: 17.9 µM (inactive)
M14
  GI50: 13.2 µM (inactive)
MCF7
  GI50: 16.8 µM (inactive)
MDA-MB-231
  GI50: 15.7 µM (inactive)
MDA-MB-435
  GI50: 16.3 µM (inactive)
MDA-N
  GI50: 17.8 µM (inactive)
MOLT-4
  GI50: 5.42 µM (inactive)
Malme-3M
  GI50: 16.7 µM (inactive)
NCI-H226
  GI50: 20.9 µM (inactive)
NCI-H23
  GI50: 18.5 µM (inactive)
NCI-H460
  GI50: 16.9 µM (inactive)
NCI-H522
  GI50: 15 µM (inactive)
NCI/ADR-RES
  GI50: 17.3 µM (inactive)
OVCAR-3
  GI50: 16.6 µM (inactive)
OVCAR-4
  GI50: 12.4 µM (inactive)
OVCAR-5
  GI50: 19.1 µM (inactive)
OVCAR-8
  GI50: 17.8 µM (inactive)
PC-3
  GI50: 14.7 µM (inactive)
RPMI-8226
  GI50: 10.5 µM (inactive)
RXF 393
  GI50: 15.3 µM (inactive)
SF-268
  GI50: 17.4 µM (inactive)
SF-295
  GI50: 17.3 µM (inactive)
SF-539
  GI50: 17.3 µM (inactive)
SK-MEL-28
  GI50: 15 µM (inactive)
SK-MEL-2
  GI50: 16.2 µM (inactive)
SK-MEL-5
  GI50: 15.9 µM (inactive)
SK-OV-3
  GI50: 16.5 µM (inactive)
SN12C
  GI50: 17.5 µM (inactive)
SNB-19
  GI50: 17 µM (inactive)
SNB-75
  GI50: 13.1 µM (inactive)
SR
  GI50: 14.4 µM (inactive)
SW-620
  GI50: 15.7 µM (inactive)
T47D
  GI50: 13.1 µM (inactive)
TK-10
  GI50: 15 µM (inactive)
U-251
  GI50: 15.8 µM (inactive)
UACC-257
  GI50: 17.7 µM (inactive)
UACC-62
  GI50: 16.1 µM (inactive)
UO-31
  GI50: 16.9 µM (inactive)

## N#CCN1CCN(CC#N)CCN(CC#N)CCN(CC#N)CC1
786-0
  GI50: > 100 µM (inactive)
A498
  GI50: > 100 µM (inactive)
A549
  GI50: > 100 µM (inactive)
ACHN
  GI50: > 100 µM (inactive)
BT-549
  GI50: > 100 µM (inactive)
CAKI-1
  GI50: > 100 µM (inactive)
CCRF-CEM
  GI50: 67 µM (inactive)
COLO 205
  GI50: > 100 µM (inactive)
DU-145
  GI50: > 100 µM (inactive)
HCC 2998
  GI50: 43.5 µM (inactive)
HCT-116
  GI50: > 100 µM (inactive)
HL-60
  GI50: 33.3 µM (inactive)
HOP-62
  GI50: > 100 µM (inactive)
HOP-92
  GI50: > 100 µM (inactive)
HT-29
  GI50: 50.5 µM (inactive)
Hs-578T
  GI50: > 100 µM (inactive)
IGROV-1
  GI50: > 100 µM (inactive)
K562
  GI50: > 100 µM (inactive)
KM12
  GI50: > 100 µM (inactive)
LOX IMVI
  GI50: 33.3 µM (inactive)
M14
  GI50: > 100 µM (inactive)
MCF7
  GI50: 43.1 µM (inactive)
MDA-MB-231
  GI50: > 100 µM (inactive)
MDA-MB-435
  GI50: > 100 µM (inactive)
MDA-N
  GI50: > 100 µM (inactive)
MOLT-4
  GI50: > 100 µM (inactive)
Malme-3M
  GI50: > 100 µM (inactive)
NCI-H226
  GI50: > 100 µM (inactive)
NCI-H23
  GI50: > 100 µM (inactive)
NCI-H460
  GI50: 53.3 µM (inactive)
NCI-H522
  GI50: > 100 µM (inactive)
NCI/ADR-RES
  GI50: > 100 µM (inactive)
OVCAR-3
  GI50: > 100 µM (inactive)
OVCAR-4
  GI50: > 100 µM (inactive)
OVCAR-5
  GI50: > 100 µM (inactive)
OVCAR-8
  GI50: > 100 µM (inactive)
PC-3
  GI50: 96.4 µM (inactive)
RPMI-8226
  GI50: 38.3 µM (inactive)
RXF 393
  GI50: 79.6 µM (inactive)
SF-268
  GI50: > 100 µM (inactive)
SF-295
  GI50: > 100 µM (inactive)
SF-539
  GI50: > 100 µM (inactive)
SK-MEL-28
  GI50: > 100 µM (inactive)
SK-MEL-2
  GI50: > 100 µM (inactive)
SK-MEL-5
  GI50: > 100 µM (inactive)
SK-OV-3
  GI50: 46.8 µM (inactive)
SN12C
  GI50: > 100 µM (inactive)
SNB-19
  GI50: > 100 µM (inactive)
SNB-75
  GI50: > 100 µM (inactive)
SR
  GI50: > 100 µM (inactive)
SW-620
  GI50: 42 µM (inactive)
T47D
  GI50: > 100 µM (inactive)
TK-10
  GI50: > 100 µM (inactive)
U-251
  GI50: > 100 µM (inactive)
UACC-257
  GI50: > 100 µM (inactive)
UACC-62
  GI50: 80.2 µM (inactive)
UO-31
  GI50: > 100 µM (inactive)
